Drawing on PubChem BioAssay AID179 (DTP/NCI, 2004), this text covers EC50, IC50 and outcome for 27 compounds.

SMILES strings stand for the structures. Where “and” joins values, the source holds several entries; their conditions need not be identical. Equal entries are not always repeated. Calls of active or inactive are those of the source.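 Rule for the calls: active = compounds giving half or more protection of infected cells from virus-caused growth loss, again on retest; inactive = the rest.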

Broadly, the EC50 is the concentration that produces a half-maximal response. In general, IC50 refers to the concentration at which inhibition is half-maximal. A high value points to weaker potency.

This assay has as its system CEM cells HIV-1 protection, formazan growth assay. Briefly: NCI AIDS Antiviral Assay. Particulars: for IC50: measured here: growth of uninfected CEM cells. A digest of the protocol:
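Protection of CEM cells against HIV-1 was scored from cell growth (soluble formazan) across five concentrations, with parallel uninfected cells. Lack of protection may reflect toxicity.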

Consider `COC1=C(C(=O)OC(C)(C)C)C23CCCCCCCCCCC2(C(C(=O)OC(C)(C)C)=C(OC)C3C(=O)OC(C)(C)C)C1C(=O)OC(C)(C)C` (stereo not given), for which the EC50 was > 25.1 µM and the IC50 amounted to 23.4 µM. Take `CN(C)CC1CCCCCCCCCCC1=O` (stereo not given): the EC50 is > 200 µM; the IC50 is 117 µM and 93.3 µM. In the case of `NC(CCSS(=O)(=O)O)=NCC(c1ccccc1)c1ccccc1`, the half-maximal effective concentration (EC50) is > 123 µM and the concentration for half-maximal inhibition (IC50) stood at 20 µM. For `CCCCCCCCCCCCCCCCc1c(C(=O)OC)nc(NC#N)[nH]c1=O`, the EC50 was > 14.5 µM and the IC50 is > 14.5 µM. `O=C(Nc1ccccc1)OCC1OCOC(COC(=O)Nc2ccccc2)C1OC(=O)Nc1ccccc1` (stereo not given): the EC50 is > 200 µM and the IC50 is 4.47 µM. For `CNc1ccc(C=C2C=CC=C2)cc1` the same measures were > 74.1 µM and 39.8 µM. Turning to `CCCCCCCCCCCC(=O)OCCOCCOCCOCCOCCOCc1ccccc1`, the outcome was inactive.

For `Cc1cc2c(C(C)C)c(O)c(O)c(C=Nc3cccc(O)c3)c2c(O)c1-c1c(C)cc2c(C(C)C)c(O)c(O)c(C=Nc3cccc(O)c3)c2c1O`, the result was inactive and the half-inhibitory concentration (IC50) came out at 8.13 µM. Take `CC1=NOC(=O)C1N=Nc1ccc(Br)c(C)c1` (stereo not given): the outcome was inactive. With `Cc1ncc(COP(=O)(O)O)c(/C=C2\SC(=S)NC2=O)c1O`, the EC50 was > 200 µM and the IC50 was > 200 µM. For `O=C(CCCC[n+]1ccccc1)Sc1ccccc1C(=O)Nc1ccc(S(=O)(=O)Nc2ccnn2-c2ccccc2)cc1`, the EC50 is 6.17 µM and the IC50 came out at 35.5 µM. In the case of `C=C1C(=O)OC2C1CC[C@H](C)C1(O)C(O)CC(=O)[C@@]21C` (stereo not given in full), the outcome was inactive. As for `O=C1c2ccc([N+](=O)[O-])cc2C(=O)N1CC[P+](c1ccccc1)(c1ccccc1)c1ccccc1`, the EC50 is > 200 µM and the IC50 is > 200 µM. Consider `CCOC(=O)C1=NN(c2ccccc2)C(=O)/C1=C\n1c(=S)sc2ccccc21`, for which the EC50 is > 100 µM and the IC50 turned out to be 51.3 µM.

Turning to `O=C(O)CNS(=O)(=O)c1ccc(NCc2ccccc2)cc1`, the outcome was inactive. Consider `NC(=O)C(N)c1ccccc1` (stereo not given), for which the EC50 was > 200 µM and the IC50 is > 200 µM. On to `CCOC(=O)c1cc(-c2ccc(OC)cc2)c([N+](=O)[O-])[nH]1`, for which the EC50 was > 200 µM and the IC50 was determined as 25.7 µM. Consider `O=[N+]([O-])c1ccc2nc(/C=C(\O)c3ccc(Cl)cc3)c(/C=C(\O)c3ccc(Cl)cc3)nc2c1`, for which the EC50 was > 200 µM and the IC50 was 89.1 µM.

Consider `C/C(=N\Nc1ccccc1)C(CN(C)C)C(c1ccccc1)c1c(O)c2ccccc2oc1=O` (stereo not given), for which the EC50 is > 27.5 µM and the IC50 is > 27.5 µM. As to `CCOC(=O)c1c(NC(=O)c2ccccc2)sc2c(=O)oc(-c3ccccc3)nc12`, the EC50 is > 24 µM and the half-inhibitory concentration (IC50) was > 24 µM. For `CCCCNC(=O)n1ncc2cc([N+](=O)[O-])c([N+](=O)[O-])cc21`, the EC50 was > 200 µM and the 50% inhibitory concentration (IC50) was determined as 25.7 µM. For `O=C(CCN1CCN(CCC(=O)c2ccccc2)CC1)c1ccccc1` the same measures were > 200 µM and 9.12 µM. Regarding `CC1=C(C(=O)NNC(=O)c2ccccc2O)CC(C(=O)NNC(=O)c2ccccc2O)=C(C)N1`, the EC50 is > 200 µM and the IC50 is 1.66 µM. Take `OCc1ccc2[n+](c1)CCc1c-2[nH]c2ccccc12`: the EC50 was > 77.6 µM and the 50% inhibitory concentration (IC50) was > 77.6 µM. For the compound `COc1cccc2c1C(=O)c1c(O)c3c(c(O)c1C2=O)CC(O)(C(O)CO)CC3OC1CC(N2CCOCC2)C(O)C(C)O1` (stereo not given), the EC50 was > 0.2 µM and the IC50 was 0.00355 µM. For `CC(C)CCCC(C)C1CCC2[C@@H]3CCC4C[C@@H](CCC=C(c5cc(Br)c(O)c(C(=O)O)c5)c5cc(Br)c(O)c(C(=O)O)c5)CC[C@]4(C)C3CC[C@]12C` (stereo not given in full) the same measures were 20.9 µM and 282 µM. For `COc1ccccc1/C=C(\NC(=O)c1ccccc1)c1nc2ccccc2[nH]1` the same measures were > 97.7 µM and 47.9 µM.
